Each structure is given as a SMILES string.

This test addresses Human recombinant carboxy-terminal his-tagged LDHA (amino acids 2-332) (Homo sapiens, UniProt P00338). The test is described as follows: LDHA enzyme inhibition assay (NADH fluorescence). The note with it: LDHA IC50 (μM), 1 nM LDHA, NADH and pyruvate, stereochemistry of tested sample given.
Description: Test compounds were diluted in 100% DMSO with 1:3 serial dilutions. […] For the enzyme reaction, serially diluted compounds were added to a mixture of enzyme and NADH. […] Following the baseline read, pyruvate was added to the assay plates and the plates were read with excitation 340 nm and emission 480 nm for 10 minutes every 2.5 seconds. A suitable linear timeframe was selected (150-400 s) to calculate the slope of each concentration tested. The raw data were fitted to 4-parameter dose-response curves using the following equation:
fit=(A+((B−A)/(1+((C/x)̂D))))
inv=(C/((((B−A)/(y−A))−)̂(1/D)))
res=(y−fit) • where A=minimum y, B=maximum y, C=50% y max, and D=slope factor.
The curve bottom was set to the background rate (initial 5 second recording prior to addition of pyruvate) and curve top was set to no inhibitor (DMSO only) control wells rate.
The compounds of the present invention were tested for their capacity to inhibit LDHA activity and activation as described in the enzyme inhibition assay described above.
In the case of `O=C1CC(c2ccc(OCCO)cc2)(c2ccsc2)NC(=O)C1Sc1ccccc1Cl` (stereo not shown) [Example 29, 3-(2-chlorophenyl)sulfanyl-6-[4-(2-hydroxyethoxy)phenyl]-6-(3-thienyl)piperidine-2,4-dione], the IC50 was determined as 0.009 µM.

Regarding `CC(Oc1cccc(C2(c3ccsc3)CC(=O)C(Sc3ccccc3Cl)C(=O)N2)n1)c1ccc(F)c(F)c1` (stereo not shown) [Example 313, 3-((2-chlorophenyl)thio)-6-(6-(1-(3,4-difluoro-phenyl)ethoxy)pyridin-2-yl)-6-(thiophen-3-yl) piperidine-2,4-dione], the IC50 amounted to 0.105 µM.

Regarding `CCC(C)COc1cccc(C2(c3ccsc3)CC(=O)C(Sc3ccccc3Cl)C(=O)N2)n1` (stereo not shown) [Example 210, 3-(2-chlorophenyl)sulfanyl-6-[6-(2-methylbutoxy)-2-pyridyl]-6-(3-thienyl) piperidine-2,4-dione], the half-maximal inhibitory concentration (IC50) came to 0.008 µM.

In the case of `O=C1CC(c2ccsc2)(c2cccc(Oc3ccc(F)c(C(F)(F)F)c3)n2)NC(=O)C1Sc1ccccc1Cl` (stereo not shown) [Example 150, 3-(2-chlorophenyl)sulfanyl-6-[6-[4-fluoro-3-(trifluoromethyl)phenoxy]-2-pyridyl]-6-(3-thienyl) piperidine-2,4-dione], the IC50 turned out to be 0.019 µM.

`O=C1CC(c2ccsc2)(c2cccc(OCC3CCOCC3)n2)NC(=O)C1Sc1ccccc1Cl` (single isomer, unassigned) [Example 163, 3-((2-chlorophenyl)thio)-6-(6-((tetrahydro-2H-pyran-4-yl)methoxy)pyridin-2-yl)-6-(thiophen-3-yl)piperidine-2,4-dione]: the half-maximal inhibitory concentration (IC50) came to 0.194 µM.

As to `CC(CC1CC1)Oc1cccc(C2(c3ccsc3)CC(=O)C(Sc3ccccc3Cl)C(=O)N2)n1` (single isomer, unassigned) [Example 241, 3-(2-chlorophenyl)sulfanyl-6-[6-(2-cyclopropyl-1-methyl-ethoxy)-2-pyridyl]-6-(3-thienyl)piperidine-2,4-dione], the IC50 was 0.003 µM.

For `O=C1CC(c2ccsc2)(c2cccc(OCC(F)(F)F)n2)NC(=O)C1Sc1ccccc1Cl` (single isomer, unassigned) [Example 82, 3-(2-chlorophenyl)sulfanyl-6-(3-thienyl)-6-[6-(2,2,2-trifluoroethoxy)-2-pyridyl]piperidine-2,4-dione], the IC50 was 0.049 µM.

Regarding `O=C1CC(c2ccsc2)(c2ccc(N3CCOCC3)c(Nc3ccc(F)cc3)n2)NC(=O)C1Sc1ccccc1Cl` (stereo not shown) [Example 26, 3-(2-chlorophenyl)sulfanyl-6-[6-(4-fluoroanilino)-5-morpholino-2-pyridyl]-6-(3-thienyl)piperidine-2,4-dione], the IC50 was found to be 0.038 µM.

Consider `O=C1CC(c2ccsc2)(c2cccc(Oc3cccc4ncccc34)n2)NC(=O)C1Sc1ccccc1Cl` (single isomer, unassigned) [Example 128, 3-(2-chlorophenyl)sulfanyl-6-[6-(5-quinolyloxy)-2-pyridyl]-6-(3-thienyl) piperidine-2,4-dione], for which the IC50 is 0.024 µM.

In the case of `O=C1CC(c2ccc(C3=CCCCC3)cc2)(c2ccsc2)NC(=O)C1Sc1ccccc1Cl` (stereo not shown) [Example 8, 3-(2-chlorophenyl)sulfanyl-6-[4-(cyclohexen-1-yl)phenyl]-6-(3-thienyl)piperidine-2,4-dione], the IC50 was determined as 0.004 µM.

As for `CC1(C)OCC(CCOc2cccc(C3(c4ccsc4)CC(=O)C(Sc4ccccc4Cl)C(=O)N3)n2)O1` (stereo not shown) [Example 190, 3-(2-chlorophenyl)sulfanyl-6-[6-[2-(2,2-dimethyl-1,3-dioxolan-4-yl)ethoxy]-2-pyridyl]-6-(3-thienyl) piperidine-2,4-dione], the half-maximal inhibitory concentration (IC50) is 0.092 µM.

As to `O=C1CC(c2ccsc2)(c2cccc(Oc3ccc4ncccc4c3)n2)NC(=O)C1Sc1ccccc1Cl` (single isomer, unassigned) [Example 117, 3-(2-chlorophenyl)sulfanyl-6-[6-(6-quinolyloxy)-2-pyridyl]-6-(3-thienyl) piperidine-2,4-dione], the 50% inhibitory concentration (IC50) came to 0.076 µM.

In the case of `O=C1C[C@](c2ccsc2)(c2cccc(Oc3ccc(F)nc3Cl)n2)NC(=O)C1Sc1ccccc1Cl` (mixture of isomers) [Example 325, (6S)-6-[6-[(2-chloro-6-fluoro-3-pyridyl)oxy]-2-pyridyl]-3-(2-chlorophenyl) sulfanyl-6-(3-thienyl) piperidine-2,4-dione], the IC50 was determined as 0.162 µM.

`O=C1CC(c2ccsc2)(c2ccc(N3CCOCC3)c(Oc3ccc(F)cc3)n2)NC(=O)C1Sc1ccccc1Cl` (stereo not shown) [Example 27, 3-(2-chlorophenyl)sulfanyl-6-[6-(4-fluorophenoxy)-5-morpholino-2-pyridyl]-6-(3-thienyl)piperidine-2,4-dione]: the concentration for half-maximal inhibition (IC50) came to 0.05 µM.

Take `O=C1CC(c2ccsc2)(c2cccc(Nc3ccc(F)cc3)n2)NC(=O)C1Oc1ccccc1Cl` (stereo not shown) [Example 295, 3-(2-chlorophenoxy)-6-[6-(4-fluoroanilino)-2-pyridyl]-6-(3-thienyl)piperidine-2,4-dione]: the IC50 was determined as 0.081 µM.

Turning to `Cn1ccc(Nc2cccc(C3(c4ccsc4)CC(=O)C(Sc4ccccc4Cl)C(=O)N3)n2)n1` (stereo not shown) [Example 270, 3-((2-chlorophenyl)thio)-6-(6-((1-methyl-1H-pyrazol-3-yl)amino)pyridin-2-yl)-6-(thiophen-3-yl)piperidine-2,4-dione], the half-inhibitory concentration (IC50) came to 0.099 µM.

For `O=C1CC(c2ccsc2)(c2cccc(Oc3ccc(F)c(Cl)c3)n2)NC(=O)C1Sc1ccccc1Cl` (single isomer, unassigned) [Example 83, 6-(6-(3-chloro-4-fluoro-phenoxy)pyridin-2-yl)-3-((2-chlorophenyl)thio)-6-(thiophen-3-yl) piperidine-2,4-dione], the IC50 is 0.013 µM.

Take `O=C1CC(c2ccsc2)(c2cccc(Oc3ccccc3-c3cn[nH]c3)n2)NC(=O)C1Sc1ccccc1Cl` (stereo not shown) [Example 18, 3-(2-chlorophenyl)sulfanyl-6-[6-[2-(1H-pyrazol-4-yl)phenoxy]-2-pyridyl]-6-(3-thienyl)piperidine-2,4-dione]: the IC50 was found to be 0.012 µM.

Turning to `Cc1cc(Nc2cccc(C3(c4ccsc4)CC(=O)C(Sc4ccccc4Cl)C(=O)N3)n2)n(C)n1` (stereo not shown) [Example 264, 3-((2-chlorophenyl)thio)-6-(6-((1,3-dimethyl-1H-pyrazol-5-yl)amino)pyridin-2-yl)-6-(thiophen-3-yl)piperidine-2,4-dione], the IC50 stood at 0.077 µM.

`O=C1CC(c2ccsc2)(c2cccc(N3CC(C4CCOCC4)C3)n2)NC(=O)C1Sc1ccccc1Cl` (stereo not shown) [Example 240, 3-(2-chlorophenyl)sulfanyl-6-[6-(3-tetrahydropyran-4-ylazetidin-1-yl)-2-pyridyl]-6-(3-thienyl) piperidine-2,4-dione]: the IC50 came out at 0.003 µM.

Regarding `O=C1CC(c2ccsc2)(c2ccc(N3CCOCC3)cc2O)NC(=O)C1Sc1ccccc1Cl` (stereo not shown) [Example 35, 3-(2-chlorophenyl)sulfanyl-6-(2-hydroxy-4-morpholino-phenyl)-6-(3-thienyl)piperidine-2,4-dione], the concentration for half-maximal inhibition (IC50) worked out at 0.007 µM.

Turning to `O=C1CC(c2ccsc2)(c2cccc(Oc3cccc4cnccc34)n2)NC(=O)C1Sc1ccccc1Cl` (stereo not shown) [Example 90, 3-((2-chlorophenyl)thio)-6-(6-(isoquinolin-5-yloxy)pyridin-2-yl)-6-(thiophen-3-yl)piperidine-2,4-dione], the half-inhibitory concentration (IC50) was 0.013 µM.

One may read the IC50 as the concentration at which inhibition is half-maximal.

For the origin of these results see patent US20170001990A1 (Genentech, Inc., priority 2014, published 2017).
